Results as given in article PMC10584170, “Machine learning-based phenotypic imaging to characterise the targetable biology of Plasmodium falciparum male gametocytes for the development of transmission-blocking antimalarials” (PLOS Pathogens, 2023).
Like-named read-outs stand apart in the source and are kept apart here.

What was measured:
HepG2 cells = experiment: HepG2 cytotoxicity counter-screen; conditions: cytotoxic activity against HepG2 cells
[1] = tested on: P. falciparum male gametocytes; experiment: P. falciparum Dual Gamete Formation Assay (PfDGFA), male readout (exflagellation); assay type: cell-based, Plasmodium falciparum NF54; conditions: for HitlevelM: number of replicates with >50% inhibition in the male readout; for Selectivity Ratio M: HepG2 Tox50 versus male IC50; for IC50: PfDGFA, 24 h incubation with gametocytes before induction, exflagellation readout, read-out: Male IC50
Outline: (§1)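 Mature NF54 gametocytes (day 14) were incubated with compound for 24 h at 37°C under 1% O2/3% CO2, then triggered with xanthurenic acid ookinete medium plus Cy3-anti-Pfs25. Exflagellation was imaged by brightfield; after a further 24 h at 28°C, Pfs25-positive female gametes were imaged by fluorescence and counted by automated image analysis.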

[2] = tested on: P. falciparum female gametocytes; experiment: P. falciparum Dual Gamete Formation Assay (PfDGFA), female readout (Pfs25-positive female gametes); assay type: cell-based, Plasmodium falciparum NF54; conditions: for HitlevelF: number of replicates with >50% inhibition in the female readout; for Selectivity ratio F: HepG2 Tox50 versus female IC50; for IC50: PfDGFA, 24 h incubation with gametocytes before induction, female gamete readout, read-out: Female IC50
Outline: as §1

[3] = PfDGFA at 2µM, 24h preincubation with gametocytes, average of replicates
[4] = PfDGFA at 2µM, 24h preincubation with gametocytes, replicate R1
[5] = PfDGFA at 2µM, 24h preincubation with gametocytes, replicate R4
[6] = 2µM, 24h preincubation with gametocytes, average of replicates
[7] = 2µM, 24h preincubation with gametocytes, replicate R1
[8] = 2µM, 24h preincubation with gametocytes, replicate R3
[9] = 2µM, 24h preincubation with gametocytes, replicate R4

CC(C)(CNC(=O)[C@H]1CCCCN1)c1nc(-c2ccc(Cl)c(O)c2)c(-c2ccncc2)[nH]1.Cl [TCMDC-141070]
Tox50 (HepG2 cells): 52.33 µM | HitlevelM ([1]; 2µM, 24h preincubation): 1 | Selectivity Ratio M [1]: 32.01 | inhibition at 2 µM ([1]; Plasmodium falciparum, 2µM, 24h preincubation with gametocytes prior to induction of gametogenesis, average of replicates, read-out: Average inhibition male (%)): 20.5% | inhibition at 2 µM ([1]; Plasmodium falciparum, 2µM, 24h preincubation with gametocytes prior to induction of gametogenesis, replicate R1, read-out: % inhibition male (individual replicates) R1): -8.8% | inhibition at 2 µM ([1]; Plasmodium falciparum, 2µM, 24h preincubation with gametocytes prior to induction of gametogenesis, replicate R2, read-out: % inhibition male (individual replicates) R2): -11.5% | inhibition at 2 µM ([1]; Plasmodium falciparum, 2µM, 24h preincubation with gametocytes prior to induction of gametogenesis, replicate R3, read-out: % inhibition male (individual replicates) R3): 48.5% | inhibition at 2 µM ([1]; Plasmodium falciparum, 2µM, 24h preincubation with gametocytes prior to induction of gametogenesis, replicate R4, read-out: % inhibition male (individual replicates) R4): 54% | IC50 ([1]; Plasmodium falciparum): 1.63 µM | HitlevelF ([2]; 2µM, 24h preincubation): 4 | Selectivity ratio F [2]: 51.37 | inhibition at 2 µM ([2]; Plasmodium falciparum, 2µM, 24h preincubation with gametocytes prior to induction of gametogenesis, average of replicates, read-out: Average inhibition female (%)): 83.6% | inhibition at 2 µM ([2]; Plasmodium falciparum, 2µM, 24h preincubation with gametocytes prior to induction of gametogenesis, replicate R1, read-out: % inhibition female (individual replicates) R1): 71.8% | inhibition at 2 µM ([2]; Plasmodium falciparum, 2µM, 24h preincubation with gametocytes prior to induction of gametogenesis, replicate R2, read-out: % inhibition female (individual replicates) R2): 79.1% | inhibition at 2 µM ([2]; Plasmodium falciparum, 2µM, 24h preincubation with gametocytes prior to induction of gametogenesis, replicate R3, read-out: % inhibition female (individual replicates) R3): 95.8% | inhibition at 2 µM ([2]; Plasmodium falciparum, 2µM, 24h preincubation with gametocytes prior to induction of gametogenesis, replicate R4, read-out: % inhibition female (individual replicates) R4): 87.7% | IC50 ([2]; Plasmodium falciparum): 1.02 µM

Cl.NCC1(c2nc(-c3ccc(Cl)c(O)c3)c(-c3ccncc3)[nH]2)CCCCC1 [TCMDC-141154]
Tox50 (HepG2 cells): 9.89 µM | Selectivity Ratio M [1]: 11.58 | inhibition at 2 µM ([1]; Plasmodium falciparum, 2µM, 24h preincubation with gametocytes, average of replicates, read-out: Average inhibition male (%)): 99.7% | inhibition at 2 µM ([1]; Plasmodium falciparum, 2µM, 24h preincubation with gametocytes, replicate R1, read-out: % inhibition male (individual replicates) R1): 95.4% | inhibition at 2 µM ([1]; Plasmodium falciparum, 2µM, 24h preincubation with gametocytes, replicate R2, read-out: % inhibition male (individual replicates) R2): 103% | inhibition at 2 µM ([1]; Plasmodium falciparum, 2µM, 24h preincubation with gametocytes, replicate R3, read-out: % inhibition male (individual replicates) R3): 95.7% | inhibition at 2 µM ([1]; Plasmodium falciparum, 2µM, 24h preincubation with gametocytes, replicate R4, read-out: % inhibition male (individual replicates) R4): 105% | IC50 ([1]; Plasmodium falciparum): 0.85 µM | Selectivity ratio F [2]: 23.04 | inhibition at 2 µM ([2]; Plasmodium falciparum, 2µM, 24h preincubation with gametocytes, average of replicates, read-out: Average inhibition female (%)): 94.3% | inhibition at 2 µM ([2]; Plasmodium falciparum, 2µM, 24h preincubation with gametocytes, replicate R1, read-out: % inhibition female (individual replicates) R1): 92.5% | inhibition at 2 µM ([2]; Plasmodium falciparum, 2µM, 24h preincubation with gametocytes, replicate R2, read-out: % inhibition female (individual replicates) R2): 91.3% | inhibition at 2 µM ([2]; Plasmodium falciparum, 2µM, 24h preincubation with gametocytes, replicate R3, read-out: % inhibition female (individual replicates) R3): 101% | inhibition at 2 µM ([2]; Plasmodium falciparum, 2µM, 24h preincubation with gametocytes, replicate R4, read-out: % inhibition female (individual replicates) R4): 92.3% | IC50 ([2]; Plasmodium falciparum): 0.43 µM

CNC(=O)c1cnc(Nc2ccc(N3CCN(C)CC3)cc2)nc1Nc1ccccc1OC.O=C(O)C(F)(F)F [TCMDC-141382]
Tox50 (HepG2 cells): 35.63 µM | Selectivity Ratio M [1]: 29.58 | inhibition at 2 µM ([1]; Plasmodium falciparum, PfDGFA at 2µM, 24h preincubation with gametocytes, average of replicates, read-out: Average inhibition male (%)): 82.8% | inhibition at 2 µM ([1]; Plasmodium falciparum, PfDGFA at 2µM, 24h preincubation with gametocytes, replicate R1, read-out: % inhibition male (individual replicates) R1): 83.2% | inhibition at 2 µM ([1]; Plasmodium falciparum, PfDGFA at 2µM, 24h preincubation with gametocytes, replicate R2, read-out: % inhibition male (individual replicates) R2): 85.9% | inhibition at 2 µM ([1]; Plasmodium falciparum, PfDGFA at 2µM, 24h preincubation with gametocytes, replicate R3, read-out: % inhibition male (individual replicates) R3): 82.1% | inhibition at 2 µM ([1]; Plasmodium falciparum, PfDGFA at 2µM, 24h preincubation with gametocytes, replicate R4, read-out: % inhibition male (individual replicates) R4): 80.2% | IC50 ([1]; Plasmodium falciparum): 1.2 µM | HitlevelM ([1]; 2µM): 4 | Selectivity ratio F [2]: 3.56 | inhibition at 2 µM ([2]; Plasmodium falciparum, PfDGFA at 2µM, 24h preincubation with gametocytes, average of replicates, read-out: Average inhibition female (%)): 0.5% | inhibition at 2 µM ([2]; Plasmodium falciparum, PfDGFA at 2µM, 24h preincubation with gametocytes, replicate R1, read-out: % inhibition female (individual replicates) R1): -10.9% | inhibition at 2 µM ([2]; Plasmodium falciparum, PfDGFA at 2µM, 24h preincubation with gametocytes, replicate R2, read-out: % inhibition female (individual replicates) R2): 1.1% | inhibition at 2 µM ([2]; Plasmodium falciparum, PfDGFA at 2µM, 24h preincubation with gametocytes, replicate R3, read-out: % inhibition female (individual replicates) R3): 15.6% | inhibition at 2 µM ([2]; Plasmodium falciparum, PfDGFA at 2µM, 24h preincubation with gametocytes, replicate R4, read-out: % inhibition female (individual replicates) R4): -3.9% | IC50 ([2]; Plasmodium falciparum): > 10 µM | HitlevelF ([2]; 2µM): 0

CN(C)CC(O)COc1ccc(Nc2ncc([N+](=O)[O-])c(Nc3ccccc3O)n2)cc1.O=C(O)C(F)(F)F (stereo not drawn) [TCMDC-141399]
Tox50 (HepG2 cells): 2.69 µM | Selectivity Ratio M [1]: 1.47 | Average inhibition male (%) [1, 3]: 87.0% | % inhibition male (individual replicates) R1 [1, 4]: 80.9% | % inhibition male (individual replicates) R4 [1, 5]: 85.8% | IC50 [1]: 1.83 µM | HitlevelM ([1]; 2µM): 3 | Selectivity ratio F [2]: 0.27 | Average inhibition female (%) [2, 3]: 9.6% | % inhibition female (individual replicates) R1 [2, 4]: 0.18% | % inhibition female (individual replicates) R3 ([2]; PfDGFA at 2µM, 24h preincubation with gametocytes, replicate R3): 2.4% | % inhibition female (individual replicates) R4 [2, 5]: 9.1% | HitlevelF ([2]; 2µM): 0

Cc1ccc(Cn2nc(Cl)c(N3CCNCC3)cc2=O)cc1NC(=O)Nc1ccc(-c2ccccc2)cc1.O=C(O)C(F)(F)F [TCMDC-141698]
Tox50 (HepG2 cells): 3.97 µM | Average inhibition male (%) [1, 6]: 96.8% | % inhibition male (individual replicates) R1 [1, 7]: 94.1% | % inhibition male (individual replicates) R3 [1, 8]: 94.5% | % inhibition male (individual replicates) R4 [1, 9]: 100.9% | Selectivity Ratio M [1]: 3.32 | IC50 [1]: 1.2 µM | Average inhibition female (%) [2, 6]: 53.1% | % inhibition female (individual replicates) R1 [2, 7]: 36.8% | % inhibition female (individual replicates) R3 [2, 8]: 40.3% | % inhibition female (individual replicates) R4 [2, 9]: 66.3% | Selectivity ratio F [2]: 3.54 | IC50 [2]: 1.12 µM
